Reference: ChEMBL document CHEMBL4229436, “Synthesis and biological evaluation of Complex I inhibitor R419 and its derivatives as anticancer agents in HepG2 cells” (Bioorg Med Chem Lett, 2018)
One block for each compound: values may come before it. The source made the active and inactive calls. The calls are words filed in the database; no cut-off is given here.

Assays:
HepG2 [1] = assay: Cytotoxicity against human HepG2 cells after 72 hrs by MTT assay; format: functional, cell-based; settings: HepG2, 72 h
L02 = assay: Cytotoxicity against human L02 cells after 72 hrs by MTT assay; format: cell-based; settings: L02, 72 h
A549 = assay: Cytotoxicity against human A549 cells after 72 hrs by MTT assay; format: functional, cell-based; settings: A549, 72 h
HepG2 [2] = assay: Induction of apoptosis in human HepG2 cells assessed as live cells at 0.3 uM after 40 hrs by Annexin-V-FITC/propidium iodide staining based flow cytometry (reference value: 82.6%); format: functional
HepG2 [3] = assay: Induction of apoptosis in human HepG2 cells assessed as early apoptotic cells at 0.3 uM after 40 hrs by Annexin-V-FITC/propidium iodide staining based flow cytometry (reference value: 2.8%); format: functional
HepG2 [4] = assay: Induction of apoptosis in human HepG2 cells assessed as late apoptotic cells at 0.3 uM after 40 hrs by Annexin-V-FITC/propidium iodide staining based flow cytometry (reference value: 7.6%); format: functional
HepG2 [5] = assay: Induction of apoptosis in human HepG2 cells assessed as necrotic cells at 0.3 uM after 40 hrs by Annexin-V-FITC/propidium iodide staining based flow cytometry (reference value: 7%); format: functional
HepG2 [6] = assay: Induction of apoptosis in human HepG2 cells assessed as live cells at 3 uM after 40 hrs by Annexin-V-FITC/propidium iodide staining based flow cytometry (reference value: 82.6%); format: functional
HepG2 [7] = assay: Induction of apoptosis in human HepG2 cells assessed as early apoptotic cells at 3 uM after 40 hrs by Annexin-V-FITC/propidium iodide staining based flow cytometry (reference value: 2.8%); format: functional
HepG2 [8] = assay: Induction of apoptosis in human HepG2 cells assessed as late apoptotic cells at 3 uM after 40 hrs by Annexin-V-FITC/propidium iodide staining based flow cytometry (reference value: 7.6%); format: functional
HepG2 [9] = assay: Induction of apoptosis in human HepG2 cells assessed as necrotic cells at 3 uM after 40 hrs by Annexin-V-FITC/propidium iodide staining based flow cytometry (reference value: 7%); format: functional
HepG2 [10] = assay: Induction of apoptosis in human HepG2 cells assessed as caspase-3 cleavage at 0.1 to 30 uM after 24 hrs by Western blot analysis; format: functional, cell-based
HepG2 [11] = assay: Induction of apoptosis in human HepG2 cells assessed as PARP cleavage at 0.1 to 30 uM after 24 hrs by Western blot analysis; format: functional, cell-based
HepG2 [12] = assay: Induction of intracellular ATP depletion in human HepG2 cells at 3 uM after 44 hrs by luminescence based spectrophotometric method; format: functional, cell-based
HepG2 [13] = assay: Induction of intracellular ATP depletion in human HepG2 cells at 0.3 uM after 44 hrs by luminescence based spectrophotometric method; format: functional, cell-based
[14] = target: AMP-activated protein kinase, AMPK (Homo sapiens) (UniProt P54646+O43741+P54619+Q9UGJ0+Q9Y478+Q13131+Q9UGI9); assay: Activation of AMPK in human HepG2 cells after 24 hrs by Western blot analysis; format: cell-based
HepG2 [15] = assay: Reduction in Bcl2 to bax ratio in human HepG2 cells at 0.1 to 30 uM after 24 hrs by Western blot analysis; format: functional, cell-based
Homo sapiens [16] = species: Homo sapiens; assay: Inhibition of NADH-ubiquinone oxidoreductase (unknown origin)
Homo sapiens [17] = species: Homo sapiens; assay: Inhibition of NADH-ubiquinone oxidoreductase (unknown origin) at 50 uM

Compound: N#Cc1ccc(CN2CCC(NC(=O)COc3ccc4c(=O)cc(-c5ccccc5)oc4c3)CC2)cc1
IC50 (HepG2 [1]): 9.3 µM

Compound: COc1ccc(CN2CCC(NC(=O)C(C)(C)Oc3ccc4c(=O)cc(-c5ccccc5)oc4c3)CC2)cc1
IC50 (HepG2 [1]): 8.7 µM

Compound: COc1ccc(CN2CCC(NC(=O)COc3ccc4c(=O)c(-c5ccccc5)coc4c3)CC2)cc1
IC50 (HepG2 [1]): > 20 µM

Compound: O=C(COc1ccc2c(=O)cc(-c3ccccc3)oc2c1)NC1CCN(C(=O)c2ccccc2)CC1
IC50 (HepG2 [1]): > 20 µM

Compound: O=C(COc1ccc(-c2cc(=O)c3ccccc3o2)cc1)N1CCN(Cc2ccccc2)CC1
IC50 (HepG2 [1]): > 20 µM

Compound: COc1ccc(CN2CCC(NC(=O)COc3ccc(-c4cc(=O)c5ccccc5o4)cc3)CC2)cc1
IC50 (HepG2 [1]): 6.8 µM

Activity [14]: Dose-dependent effect
inhibition (Homo sapiens [16]): Dose-dependent effect
inhibition (Homo sapiens [17]): Active
Compound: COc1ccc(CN2CCC(NC(=O)C(C)(C)Oc3ccc(-c4cc(=O)c5ccccc5o4)cc3)CC2)cc1
IC50 (HepG2 [1]): 2.8 µM
IC50 (L02): 17.6 µM
IC50 (A549): 40 µM
Activity (HepG2 [2]): 80.2%
Activity (HepG2 [3]): 1.6%
Activity (HepG2 [4]): 7.3%
Activity (HepG2 [5]): 11%
Activity (HepG2 [6]): 53.4%
Activity (HepG2 [7]): 0%
Activity (HepG2 [8]): 0.2%
Activity (HepG2 [9]): 46.4%
Activity (HepG2 [10]): inactive
Activity (HepG2 [11]): inactive
Activity (HepG2 [12]): Active
Activity (HepG2 [13]): inactive
Activity (HepG2 [15]): Active

Compound: O=C(COc1ccc2c(=O)cc(-c3ccccc3)oc2c1)NC1CCN(Cc2ccc(C(F)(F)F)cc2)CC1
IC50 (HepG2 [1]): 7.2 µM

Compound: N#Cc1ccc(CN2CCC(NC(=O)COc3ccc4c(=O)c(-c5ccccc5)coc4c3)CC2)cc1
IC50 (HepG2 [1]): > 20 µM

Compound: CC(C)(Oc1ccc(-c2cc(=O)c3ccccc3o2)cc1)C(=O)NC1CCN(Cc2ccccc2)CC1
IC50 (HepG2 [1]): > 20 µM

Compound: N#Cc1ccc(CN2CCC(NC(=O)COc3ccc(-c4cc(=O)c5ccccc5o4)cc3)CC2)cc1
IC50 (HepG2 [1]): 6.7 µM

Compound: O=C(COc1ccc2c(=O)cc(-c3ccccc3)oc2c1)N1CCN(Cc2ccccc2)CC1
IC50 (HepG2 [1]): > 20 µM

Activity [14]: Active
inhibition (Homo sapiens [16]): Dose-dependent effect
Compound: COc1ccc(C(=O)C2CCN(C(=O)c3ccc(C(=O)NC4CCN(Cc5ccc(C#N)cc5)CC4)cn3)CC2)cc1
IC50 (HepG2 [1]): 5.2 µM
IC50 (L02): 25.9 µM
IC50 (A549): 19.5 µM

Compound: CC(C)(Oc1ccc2c(=O)cc(-c3ccccc3)oc2c1)C(=O)NC1CCN(Cc2ccccc2)CC1
IC50 (HepG2 [1]): 14 µM

Compound: O=C(COc1ccc2c(=O)c(-c3ccccc3)coc2c1)N1CCN(Cc2ccccc2)CC1
IC50 (HepG2 [1]): > 20 µM

Compound: O=C(COc1ccc2c(=O)c(-c3ccccc3)coc2c1)NC1CCN(Cc2ccccc2)CC1
IC50 (HepG2 [1]): > 20 µM

Compound: O=C(COc1ccc(-c2cc(=O)c3ccccc3o2)cc1)NC1CCN(Cc2ccccc2)CC1
IC50 (HepG2 [1]): 15.5 µM

Compound: CC(C)(Oc1ccc2c(=O)c(-c3ccccc3)coc2c1)C(=O)NC1CCN(Cc2ccccc2)CC1
IC50 (HepG2 [1]): > 20 µM

Compound: O=C(COc1ccc2c(=O)cc(-c3ccccc3)oc2c1)NC1CCN(Cc2ccccc2)CC1
IC50 (HepG2 [1]): 16.7 µM

Compound: O=C(COc1ccc(-c2cc(=O)c3ccccc3o2)cc1)NC1CCN(C(=O)c2ccccc2)CC1
IC50 (HepG2 [1]): > 20 µM

Compound: CC(C)(Oc1ccc2c(=O)cc(-c3ccccc3)oc2c1)C(=O)NC1CCN(Cc2ccc(C(F)(F)F)cc2)CC1
IC50 (HepG2 [1]): > 20 µM
